# Laboratory results taken from ChEMBL document CHEMBL3351924, “Detailed analysis and follow-up studies of a high-throughput screening for indoleamine 2,3-dioxygenase 1 (IDO1) inhibitors” (Eur J Med Chem, 2014).
# Experiments:
# [1] = biological target: Tryptophan 2,3-dioxygenase (Mus musculus, UniProt P48776); assay: Inhibition of mouse TDO expressed in mouse P815B cells using L-tryptophan substrate incubated for 24 hrs by HPLC based cellular assay; type: cell-based
# [2] = biological target: T1, Indoleamine 2,3-dioxygenase 1 (Homo sapiens, UniProt P14902); assay: Inhibition of IDO1 (unknown origin) using L-tryptophan substrate incubated for 60 mins by HPLC; conditions: read-out: IC50
# [3] = biological target: Indoleamine 2,3-dioxygenase 1 (Mus musculus, UniProt P28776); assay: Inhibition of mouse IDO1 expressed in mouse P815B cells using L-tryptophan substrate incubated for 18 hrs by HPLC based cellular assay; type: cell-based
# [4] = biological target: T1, Indoleamine 2,3-dioxygenase 1; assay: Inhibition of IDO1 (unknown origin) using L-tryptophan substrate incubated for 60 mins in presence of 0.01% Triton-X by HPLC; conditions: read-out: IC50
# [5] = Cytotoxicity against mouse P815B cells after 24 hrs by MTS/PMS assay; conditions: P815B cells
# [6] = biological target: T1, Indoleamine 2,3-dioxygenase 1; assay: Inhibition of IDO1 (unknown origin) using L-tryptophan substrate incubated for 60 mins in presence of 5 mM GSH by HPLC
# [7] = Solubility of the compound in pH 6.5 phosphate buffer containing 5% DMSO; conditions: phosphate buffer containing 5% DMSO
# T1 sequence (P14902 whole entry): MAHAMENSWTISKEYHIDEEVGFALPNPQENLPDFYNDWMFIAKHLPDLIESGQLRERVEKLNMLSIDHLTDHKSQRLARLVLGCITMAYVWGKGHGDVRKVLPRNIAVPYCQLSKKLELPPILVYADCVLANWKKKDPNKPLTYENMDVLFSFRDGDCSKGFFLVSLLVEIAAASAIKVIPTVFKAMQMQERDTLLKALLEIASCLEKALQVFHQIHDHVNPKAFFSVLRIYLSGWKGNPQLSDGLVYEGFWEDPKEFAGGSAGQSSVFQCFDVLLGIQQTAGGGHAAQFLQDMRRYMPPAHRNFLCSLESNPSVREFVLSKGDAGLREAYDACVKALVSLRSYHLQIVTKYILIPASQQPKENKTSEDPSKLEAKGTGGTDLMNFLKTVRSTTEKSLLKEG
# Tryptophan 2,3-dioxygenase, sequence (P48776 whole entry): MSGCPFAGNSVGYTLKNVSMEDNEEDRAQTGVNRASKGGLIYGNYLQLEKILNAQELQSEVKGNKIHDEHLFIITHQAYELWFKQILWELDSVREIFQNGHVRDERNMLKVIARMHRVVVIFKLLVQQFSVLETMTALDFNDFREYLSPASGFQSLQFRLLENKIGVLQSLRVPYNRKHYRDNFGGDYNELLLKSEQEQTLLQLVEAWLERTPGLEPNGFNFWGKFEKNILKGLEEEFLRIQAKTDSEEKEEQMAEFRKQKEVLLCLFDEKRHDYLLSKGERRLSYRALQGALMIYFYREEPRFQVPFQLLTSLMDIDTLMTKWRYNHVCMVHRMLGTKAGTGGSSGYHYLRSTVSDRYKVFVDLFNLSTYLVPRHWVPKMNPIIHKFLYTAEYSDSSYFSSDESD
# Indoleamine 2,3-dioxygenase 1 (Mus musculus, UniProt P28776), sequence (P28776 whole entry): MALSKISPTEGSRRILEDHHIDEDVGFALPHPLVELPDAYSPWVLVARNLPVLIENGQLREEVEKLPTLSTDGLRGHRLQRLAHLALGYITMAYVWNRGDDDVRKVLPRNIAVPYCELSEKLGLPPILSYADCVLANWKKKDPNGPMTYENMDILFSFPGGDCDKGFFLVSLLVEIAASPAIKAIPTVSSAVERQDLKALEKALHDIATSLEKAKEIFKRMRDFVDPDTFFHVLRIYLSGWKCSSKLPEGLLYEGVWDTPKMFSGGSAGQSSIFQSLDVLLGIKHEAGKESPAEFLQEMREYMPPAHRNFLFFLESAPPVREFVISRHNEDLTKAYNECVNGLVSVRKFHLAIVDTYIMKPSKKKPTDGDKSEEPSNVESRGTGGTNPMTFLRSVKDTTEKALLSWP
SMILES,IC50 ([1]; p815b),IC50 [2] [µM],IC50 ([3]; p815b),IC50 [4] [µM],CC50 at 24 h [5] [µM],IC50 [6] [µM],solubility [7] [µM],IC50 ([1]; read-out: IC50) [µM],IC50 ([3]; read-out: IC50) [µM]
CCOC(=O)c1ccc(-n2sccc2=O)cc1,Not Active,15,Not Active,11,10,100,500,–,–
Cc1ccc(-n2nnnc2C/C=N/Nc2ccc(Cl)cc2)cc1,–,54,–,53,10,31,12.5,4.2,0.34
